Experimental data reported in patent US11214803B2, “Modulators of YAP1 expression” (Ionis Pharmaceuticals, Inc., priority 2019, dated 2022).
Strand notation (5' to 3'): a small letter for the sugar, then the base; units joined by * are phosphorothioate-linked, units joined directly phosphodiester-linked; [ ] holds rarer units or linkages, { } end groups; capitals alone tell only the bases. k = constrained ethyl (cEt); [5mC] = 5-methylcytosine; d = 2'-deoxy (DNA)

Assays:
[1] = Tolerability in Balb/c mice, body and organ weights (Example 11); type: in vivo; details: 50 mg/kg subcutaneously twice a week for four weeks, end of study
Procedure: (§1) Groups of male Balb/c mice at 4-6 weeks of age (obtained from Taconic) were injected subcutaneously twice a week for four weeks (for a total of 8 treatments) with 50 mg/kg of modified oligonucleotides. One group of male Balb/c mice was injected with PBS. Mice were euthanized on day 26 post start of treatment (24 hours following the final administration).
(§2) Body weights of Balb/c mice were measured at the end of the study, and the average body weight for each group is presented in the table below. Modified oligonucleotides that caused any changes in organ weights outside the expected range for modified oligonucleotides were excluded from further studies.

[2] = Tolerability in Balb/c mice, plasma chemistry markers (Example 11); type: in vivo; details: 50 mg/kg subcutaneously twice a week for four weeks
Procedure: (§3) Balb/c mice were treated with modified oligonucleotides selected from studies described above and evaluated for changes in the levels of various plasma chemistry markers.
as §1

Yap1 mRNA [3] = experiment: Dose-dependent inhibition of human Yap1 in A-431 cells (Example 6, 5,000 cells per well, RTS4814); type: cell-based; details: for Yap1 mRNA, % UTC: 48 hours; for % UTC 148 nM / % UTC 444 nM / % UTC 1333 nM / % UTC 4000 nM: approximately 48 hours
Procedure, shortened: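 A-431 cells (5,000/well) took up oligonucleotides by free uptake at various doses for about 48 h. Yap1 mRNA was measured by RT-PCR (RTS4814), normalised to RIBOGREEN total RNA and expressed as % untreated control; IC50 by linear regression on a log/linear plot.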

Yap1 mRNA [4] = experiment: Dose-dependent inhibition of human Yap1 in A-431 cells (Example 7, 10,000 cells per well, RTS36584); type: cell-based; details: free uptake, approximately 48 hours; for Yap1 mRNA, % UTC: A-431 cells, 10,000 cells per well
Procedure, shortened: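 Yap1 mRNA was expressed as percent of untreated control after normalization to total RNA (RIBOGREEN), and IC50 was derived by log/linear linear regression. The read-out used primer-probe set RTS36584 roughly 48 hours after free-uptake dosing of oligonucleotides into A-431 cells (10,000 cells/well).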

Yap1 mRNA [5] = experiment: Dose-dependent inhibition of human Yap1 in SNU-449 cells (Example 9, RTS36584); type: cell-based; details: free uptake; for % UTC (Yap1 mRNA): approximately 48 hours
Procedure, shortened: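 Read-out was Yap1 mRNA (primer-probe RTS36584) normalised to total RNA by RIBOGREEN, given as % of untreated cells, with IC50 fitted by linear regression of log/linear data. Oligonucleotides were dosed by free uptake to SNU-449 cells, 10,000/well, for ~48 h.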

[6] = Tolerability in Balb/c mice, body and organ weights (Example 12); type: in vivo; details: male Balb/c mice, 50 mg/kg s.c. twice a week for four weeks (8 treatments), end of study (day 26)
Procedure: (§4) Groups of male Balb/c mice at 6-7 weeks of age (obtained from Taconic) were injected subcutaneously twice a week for four weeks (for a total of 8 treatments) with 50 mg/kg of modified oligonucleotides. One group of male Balb/c mice was injected with PBS. Mice were euthanized on day 26 post start of treatment (24 hours following the final administration).
as §2

[7] = Tolerability in Balb/c mice, plasma chemistry markers (Example 12); type: in vivo; details: 50 mg/kg subcutaneously twice a week for four weeks
Procedure: as §3, §4

[8] = Table 55, 148 nM, free uptake, A-431 cells 5,000 cells per well, RTS4814
[9] = Table 55, 444 nM, free uptake, A-431 cells 5,000 cells per well, RTS4814
[10] = Table 55, 1333 nM, free uptake, A-431 cells 5,000 cells per well, RTS4814
[11] = Table 55, 4000 nM, free uptake, A-431 cells 5,000 cells per well, RTS4814
[12] = Table 55, A-431 cells 5,000 cells per well, free uptake, RTS4814
[13] = Table 54, A-431 cells, Yap1 mRNA, linear regression on a log/linear plot
[14] = Table 54, A-431 cells, free uptake, 148 nM, RTS4814
[15] = Table 54, A-431 cells, free uptake, 444 nM, RTS4814
[16] = Table 54, A-431 cells, free uptake, 1333 nM, RTS4814
[17] = Table 54, A-431 cells, free uptake, 4000 nM, RTS4814
[18] = Table 53, A-431 cells, Yap1 mRNA, linear regression on a log/linear plot
[19] = Table 53, A-431 cells, free uptake, 148 nM, RTS4814
[20] = Table 53, A-431 cells, free uptake, 444 nM, RTS4814
[21] = Table 53, A-431 cells, free uptake, 1333 nM, RTS4814
[22] = Table 53, A-431 cells, free uptake, 4000 nM, RTS4814

| Substance | Kidney weight [1] | Liver weight [1] | Spleen weight [1] | body weight [1] | ALT [2] | AST [2] | BUN [2] | TBIL [2] | Yap1 mRNA, % UTC (Yap1 mRNA [3]; [8]) | Yap1 mRNA, % UTC (Yap1 mRNA [3]; [9]) | Yap1 mRNA, % UTC (Yap1 mRNA [3]; [10]) | Yap1 mRNA, % UTC (Yap1 mRNA [3]; [11]) | IC50 (Yap1 mRNA [3]; [12]) | IC50 (Yap1 mRNA [3]; [13]) | % UTC 148 nM (Yap1 mRNA [3]; [14]) | % UTC 444 nM (Yap1 mRNA [3]; [15]) | % UTC 1333 nM (Yap1 mRNA [3]; [16]) | % UTC 4000 nM (Yap1 mRNA [3]; [17]) | further results |
| --- | --- | --- | --- | --- | --- | --- | --- | --- | --- | --- | --- | --- | --- | --- | --- | --- | --- | --- | --- |
| 716455 (antisense kG*kT*kT*dA*dT*dG*dT*dT*dT*dG*dG*dG*dT*kG*kT*kG) [compound 716455] | 0.32 g | 2.66 g | 0.14 g | 21 g | 1089 U/L | 1193 U/L | 22 mg/dL | 0.25 mg/dL | 95 % UTC | 70 % UTC | 49 % UTC | 25 % UTC | 1.2 µM | – | – | – | – | – | – |
| 716424 (antisense kG*k[5mC]*kA*dA*dT*dG*dG*dA*d[5mC]*dA*dA*dG*dG*kA*kA*kG) [compound 716424] | 0.36 g | 2.08 g | 0.15 g | 23 g | 2077 U/L | 1422 U/L | 20 mg/dL | 0.22 mg/dL | – | – | – | – | – | 2 µM | 76 % UTC | 69 % UTC | 51 % UTC | 44 % UTC | – |
| 716513 (antisense kA*kA*kT*d[5mC]*dT*dT*dA*dA*dT*d[5mC]*dT*dG*dT*kG*kG*k[5mC]) [compound 716513] | 0.41 g | 1.59 g | 0.18 g | 25 g | 325 U/L | 229 U/L | 17 mg/dL | 0.14 mg/dL | 82 % UTC | 73 % UTC | 39 % UTC | 39 % UTC | 1.4 µM | – | – | – | – | – | – |
| 958590 (kA*kG*kG*dT*dA*dT*dA*dA*d[5mC]*dT*dG*dG*dG*k[5mC]*kA*kA) [compound 958590] | – | – | – | – | – | – | – | – | – | – | – | – | – | – | – | – | – | – | Yap1 mRNA, % UTC (Yap1 mRNA [4]; 15.6 nM): 71 % UTC; Yap1 mRNA, % UTC (Yap1 mRNA [4]; 62.5 nM): 33 % UTC; Yap1 mRNA, % UTC (Yap1 mRNA [4]; 4000.00 nM): 4 % UTC; IC50 (Yap1 mRNA [4]; A-431 cells, linear regression on log/linear plot): 0.03 µM; % UTC (Yap1 mRNA) (Yap1 mRNA [5]; 31.3 nM): 69 % UTC; % UTC (Yap1 mRNA) (Yap1 mRNA [5]; 125.0 nM): 52 % UTC; % UTC (Yap1 mRNA) (Yap1 mRNA [5]; 500.0 nM): 29 % UTC; % UTC (Yap1 mRNA) (Yap1 mRNA [5]; 2000.00 nM): 12 % UTC; IC50 (Yap1 mRNA [5]; linear regression on a log/linear plot): 0.1 µM; Kidney weight [6]: 0.40 g; Liver weight [6]: 1.76 g; Spleen weight [6]: 0.13 g; body weight [6]: 25 g; ALT [7]: 374 U/L; AST [7]: 360 U/L; BUN [7]: 25 mg/dL; TBIL [7]: 0.16 mg/dL |
| 716480 (antisense kG*k[5mC]*kA*dA*dG*dT*d[5mC]*dT*dT*dG*dT*dA*dA*kG*kT*kA) [compound 716480] | 0.34 g | 2.58 g | 0.10 g | 21 g | 2156 U/L | 844 U/L | 19 mg/dL | 0.14 mg/dL | 80 % UTC | 56 % UTC | 38 % UTC | 39 % UTC | 1 µM | – | – | – | – | – | – |
| 715473 (kT*k[5mC]*kT*dT*dT*dA*dT*d[5mC]*dT*dA*dG*d[5mC]*dT*kT*kG*kG; antisense) [compound 715473] | 0.31 g | 1.46 g | 0.09 g | 20 g | 3046 U/L | 2861 U/L | 20 mg/dL | 2.77 mg/dL | – | – | – | – | – | – | – | – | – | – | IC50 (Yap1 mRNA [3]; [18]): 1.3 µM; % UTC 148 nM (Yap1 mRNA [3]; [19]): 89 % UTC; % UTC 444 nM (Yap1 mRNA [3]; [20]): 67 % UTC; % UTC 1333 nM (Yap1 mRNA [3]; [21]): 50 % UTC; % UTC 4000 nM (Yap1 mRNA [3]; [22]): 30 % UTC |
| 716481 (antisense kT*k[5mC]*kA*dG*d[5mC]*dA*dT*dA*dG*dA*dA*dG*dT*kA*kG*kG) [compound 716481] | 0.36 g | 1.99 g | 0.13 g | 22 g | 1935 U/L | 2248 U/L | 21 mg/dL | 0.46 mg/dL | – | – | – | – | – | 2 µM | 89 % UTC | 90 % UTC | 58 % UTC | 32 % UTC | – |
| 716502 (antisense k[5mC]*kA*k[5mC]*dA*dG*dT*dG*dA*dT*dT*dG*d[5mC]*dA*kT*kT*kT) [compound 716502] | 0.42 g | 2.18 g | 0.10 g | 23 g | 2920 U/L | 1329 U/L | 17 mg/dL | 0.27 mg/dL | – | – | – | – | – | 0.8 µM | 73 % UTC | 57 % UTC | 45 % UTC | 30 % UTC | – |
| 715415 (k[5mC]*kG*kA*dA*d[5mC]*dA*dT*dG*d[5mC]*dT*dG*dT*dG*kG*kA*kG; antisense) [compound 715415] | 0.40 g | 1.79 g | 0.17 g | 25 g | 1075 U/L | 701 U/L | 17 mg/dL | 0.14 mg/dL | – | – | – | – | – | – | – | – | – | – | IC50 (Yap1 mRNA [3]; [18]): 1.8 µM; % UTC 148 nM (Yap1 mRNA [3]; [19]): 84 % UTC; % UTC 444 nM (Yap1 mRNA [3]; [20]): 59 % UTC; % UTC 1333 nM (Yap1 mRNA [3]; [21]): 55 % UTC; % UTC 4000 nM (Yap1 mRNA [3]; [22]): 42 % UTC |
